In ChEMBL document CHEMBL1201862, “PubChem BioAssay data set” (2004):
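Cells were grown in 96-well plates and exposed to each compound for 48 hours at five concentrations; endpoints were interpolated linearly between bracketing concentrations, or set to the highest concentration if not reached. At the GI50, growth is halved.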 Calls of active or inactive are those of the source. No stated cut-off is given here; in the data, active = GI50 up to about 1.1 µM and inactive = higher.

Columns and labels:
Assay in all cases: NCI tumour cell line growth inhibition, 48 h
[1] = test system: UACC-257
[2] = test system: BT-549
[3] = test system: NCI-H226
[4] = test system: NCI-H23
[5] = test system: MDA-MB-231
[6] = test system: SK-MEL-2
[7] = test system: SNB-19
[8] = test system: HCT-15
[9] = test system: NCI/ADR-RES
[10] = test system: SK-MEL-5
[11] = test system: Malme-3M
[12] = test system: OVCAR-8
[13] = test system: A498
[14] = test system: RPMI-8226
[15] = test system: SF-268
[16] = test system: HL-60
[17] = test system: MOLT-4
[18] = test system: MDA-MB-435
[19] = test system: CCRF-CEM
[20] = test system: SR

SMILES	GI50 [1]	GI50 [2]	GI50 [3]	GI50 [4]	GI50 [5]	GI50 [6]	GI50 [7]	GI50 [8] [µM]	GI50 [9]	GI50 [10]	GI50 [11]	GI50 [12]	GI50 [13]	GI50 [14]	GI50 [15]	GI50 [16]	GI50 [17]	GI50 [18]	GI50 [19]	GI50 [20]
C=C1CC[C@H]2C(=O)OC(c3ccoc3)C[C@]2(C)C/C=C\C=C/1C(=O)OC (some centres undefined)	> 25 µM (inactive)	> 25 µM (inactive)	> 25 µM (inactive)	11.4 µM (inactive)	> 25 µM (inactive)	> 25 µM (inactive)	> 25 µM (inactive)	> 25	13.2 µM (inactive)	> 25 µM (inactive)	> 25 µM (inactive)	> 25 µM (inactive)	> 25 µM (inactive)	–	–	–	–	–	–	–
CCC(c1c[nH]c2ccc(Br)cc12)c1c[nH]c2ccc(Br)cc12	11.6 µM (inactive)	10.3 µM (inactive)	11.8 µM (inactive)	2.96 µM (inactive)	11.1 µM (inactive)	10.6 µM (inactive)	8.57 µM (inactive)	4.01	3.08 µM (inactive)	8.11 µM (inactive)	10.6 µM (inactive)	4.53 µM (inactive)	3.79 µM (inactive)	2.5 µM (inactive)	5.97 µM (inactive)	4.39 µM (inactive)	1.94 µM (inactive)	3.13 µM (inactive)	2.95 µM (inactive)	–
O=C1CSC(c2ccc(Cl)cc2)N1c1ccc(Oc2ccc(Cl)cc2)c(Cl)c1 (centres undefined)	18.2 µM (inactive)	15 µM (inactive)	17.4 µM (inactive)	16.9 µM (inactive)	16.4 µM (inactive)	16 µM (inactive)	15.6 µM (inactive)	15.8	17.4 µM (inactive)	17.1 µM (inactive)	7.66 µM (inactive)	17.5 µM (inactive)	–	8.95 µM (inactive)	10.7 µM (inactive)	11 µM (inactive)	14.2 µM (inactive)	17.6 µM (inactive)	5.46 µM (inactive)	18.4 µM (inactive)
O=C(Sc1c(-c2ccccc2)c(=O)n(-c2ccccc2)c(=S)n1-c1ccccc1)c1ccccc1	> 100 µM (inactive)	56.1 µM (inactive)	> 100 µM (inactive)	> 100 µM (inactive)	–	> 100 µM (inactive)	> 100 µM (inactive)	60.7	75 µM (inactive)	33.9 µM (inactive)	> 100 µM (inactive)	99.3 µM (inactive)	–	41.8 µM (inactive)	> 100 µM (inactive)	33.2 µM (inactive)	19.5 µM (inactive)	93.3 µM (inactive)	15.8 µM (inactive)	31.3 µM (inactive)
C=CCOCn1cc(F)c(=O)[nH]c1=O	> 100 µM (inactive)	> 100 µM (inactive)	> 100 µM (inactive)	> 100 µM (inactive)	> 100 µM (inactive)	–	> 100 µM (inactive)	> 100	–	> 100 µM (inactive)	> 100 µM (inactive)	> 100 µM (inactive)	> 100 µM (inactive)	> 100 µM (inactive)	> 100 µM (inactive)	> 100 µM (inactive)	> 100 µM (inactive)	> 100 µM (inactive)	> 100 µM (inactive)	> 100 µM (inactive)
c1cc(CSP234N5CCN2CCN3CCN4CC5)ccc1CSP123N4CCN1CCN2CCN3CC4	> 100 µM (inactive)	> 100 µM (inactive)	–	> 100 µM (inactive)	62.7 µM (inactive)	> 100 µM (inactive)	> 100 µM (inactive)	> 100	> 100 µM (inactive)	> 100 µM (inactive)	–	> 100 µM (inactive)	–	16.4 µM (inactive)	> 100 µM (inactive)	0.465 µM (active)	91.4 µM (inactive)	97.3 µM (inactive)	27.4 µM (inactive)	–
CCOC(=O)/C(C(=O)NC(C)C)=C(/N)N1CCOCC1	> 100 µM (inactive)	> 100 µM (inactive)	> 100 µM (inactive)	> 100 µM (inactive)	> 100 µM (inactive)	> 100 µM (inactive)	> 100 µM (inactive)	> 100	> 100 µM (inactive)	–	> 100 µM (inactive)	> 100 µM (inactive)	> 100 µM (inactive)	> 100 µM (inactive)	> 100 µM (inactive)	> 100 µM (inactive)	> 100 µM (inactive)	> 100 µM (inactive)	> 100 µM (inactive)	–
CCOC(=O)C1(C/C=C\CBr)CCCCCCC1=O (centres undefined)	> 100 µM (inactive)	> 100 µM (inactive)	> 100 µM (inactive)	> 100 µM (inactive)	> 100 µM (inactive)	> 100 µM (inactive)	> 100 µM (inactive)	> 100	> 100 µM (inactive)	> 100 µM (inactive)	> 100 µM (inactive)	> 100 µM (inactive)	> 100 µM (inactive)	–	> 100 µM (inactive)	> 100 µM (inactive)	> 100 µM (inactive)	> 100 µM (inactive)	> 100 µM (inactive)	–
O=C1N/C(=N/N=C\c2ccccc2)N/C1=C/c1ccc(Cl)cc1	43 µM (inactive)	16.5 µM (inactive)	15.5 µM (inactive)	19 µM (inactive)	29.3 µM (inactive)	26.5 µM (inactive)	15.6 µM (inactive)	15.3	23.2 µM (inactive)	19.3 µM (inactive)	20.8 µM (inactive)	21.7 µM (inactive)	–	20 µM (inactive)	22.2 µM (inactive)	–	15.5 µM (inactive)	33.3 µM (inactive)	–	13.3 µM (inactive)
C=CCn1c(-c2ccc(Cl)cc2)cs/c1=N\c1ccccc1OC	7.46 µM (inactive)	> 52.5 µM (inactive)	> 64.7 µM (inactive)	7.67 µM (inactive)	–	> 74.3 µM (inactive)	> 95.5 µM (inactive)	50	6.5 µM (inactive)	2.31 µM (inactive)	31.1 µM (inactive)	27 µM (inactive)	> 100 µM (inactive)	5.6 µM (inactive)	> 100 µM (inactive)	14.9 µM (inactive)	0.179 µM (active)	5.06 µM (inactive)	8.55 µM (inactive)	0.195 µM (active)
CCOC(=O)c1nc2cc(C(F)(F)F)ccc2nc1Oc1ccc(OC)cc1	> 100 µM (inactive)	> 100 µM (inactive)	> 100 µM (inactive)	–	> 100 µM (inactive)	> 100 µM (inactive)	> 100 µM (inactive)	> 100	> 100 µM (inactive)	> 100 µM (inactive)	> 100 µM (inactive)	> 100 µM (inactive)	–	45.4 µM (inactive)	> 100 µM (inactive)	> 100 µM (inactive)	45.5 µM (inactive)	> 100 µM (inactive)	66.2 µM (inactive)	74.6 µM (inactive)
C[C@@H]1OC(=O)/C(=C\N(C)C)[C@H]2CC(=O)N(CCc3cn(S(=O)(=O)C(F)(F)F)c4ccccc34)C[C@H]12	> 100 µM (inactive)	> 100 µM (inactive)	> 100 µM (inactive)	> 100 µM (inactive)	> 100 µM (inactive)	> 100 µM (inactive)	> 100 µM (inactive)	> 100	> 100 µM (inactive)	> 100 µM (inactive)	> 100 µM (inactive)	–	> 100 µM (inactive)	> 100 µM (inactive)	> 100 µM (inactive)	–	> 100 µM (inactive)	> 100 µM (inactive)	–	–
CCOC(=O)c1ccc(/N=c2/[nH]c3ccccc3s/c2=N/c2ccc(C(=O)OCC)cc2)cc1	> 100 µM (inactive)	–	> 100 µM (inactive)	> 100 µM (inactive)	> 100 µM (inactive)	> 100 µM (inactive)	> 100 µM (inactive)	> 100	88.9 µM (inactive)	> 100 µM (inactive)	> 100 µM (inactive)	86.7 µM (inactive)	82 µM (inactive)	> 100 µM (inactive)	> 100 µM (inactive)	> 100 µM (inactive)	> 100 µM (inactive)	> 100 µM (inactive)	> 100 µM (inactive)	> 100 µM (inactive)
O=P1(c2ccccc2)C2=CCC=CC2C(c2ccccc2)N1Cc1ccccc1 (centres undefined)	20.1 µM (inactive)	17.4 µM (inactive)	–	12.3 µM (inactive)	15.9 µM (inactive)	15.5 µM (inactive)	22.4 µM (inactive)	14.5	14.5 µM (inactive)	15.2 µM (inactive)	17.8 µM (inactive)	19.6 µM (inactive)	–	13.3 µM (inactive)	14.7 µM (inactive)	20.4 µM (inactive)	16.1 µM (inactive)	15.6 µM (inactive)	15.5 µM (inactive)	24.2 µM (inactive)
CN(C)c1nc2nonc2nc1Nc1ccccc1	> 100 µM (inactive)	> 100 µM (inactive)	> 100 µM (inactive)	> 100 µM (inactive)	> 100 µM (inactive)	> 100 µM (inactive)	> 100 µM (inactive)	> 100	> 100 µM (inactive)	> 100 µM (inactive)	> 100 µM (inactive)	> 100 µM (inactive)	> 100 µM (inactive)	> 100 µM (inactive)	> 100 µM (inactive)	> 100 µM (inactive)	> 100 µM (inactive)	–	> 100 µM (inactive)	> 100 µM (inactive)
COc1ccc2c(c1)CC[C@@H]1[C@@H]2CC[C@]2(C)[C@@H](O)/C(=C/c3ccncc3)C[C@@H]12	16.6 µM (inactive)	15.7 µM (inactive)	20.1 µM (inactive)	12.8 µM (inactive)	14.2 µM (inactive)	16.3 µM (inactive)	18.8 µM (inactive)	6.95	15 µM (inactive)	9.75 µM (inactive)	12.3 µM (inactive)	14.4 µM (inactive)	17.5 µM (inactive)	3.69 µM (inactive)	12.6 µM (inactive)	7.98 µM (inactive)	4.65 µM (inactive)	9.77 µM (inactive)	11.1 µM (inactive)	–
